Source: article PMC5608556, “Photo-affinity labelling and biochemical analyses identify the target of trypanocidal simplified natural product analogues” (PLoS Neglected Tropical Diseases, 2017)

Legend:
T. brucei BSF = assay: Toxicity (EC50) in bloodstream form T. brucei; format: cell-based, Trypanosoma brucei
Description: (§1) Fig 1 Labelling and detection of B-THP-T target(s). (A) Structures of chamuvarinin and simplified analogues thereof as probes used in this study and their respective toxicity in selected cell lines. Bi-functional compound 3 contains a diazirine (blue) to cross-link the compound to its target and an alkyne handle (red) to which an azide-containing reporter probe can be added. Mono-functional compound 2 contains the diazirine to cross-link to its target but lacks the alkyne handle and cannot be appended with an azide reporter probe. Lead B-THP-T, compound 1, lacks both diazirine and alkyne. The additional functional groups on compounds 2 and 3 are minor alterations, which have little effect on inhibitor potency. (B) Overview of the in vivo pulse-chase photo-affinity labelling procedure. B-THP-T were incubated with live PF T. brucei cells and trafficked to their targets. Following UV-irradiation, only compounds containing a diazirine (i.e. compounds 2 and 3) could cross-link with target proteins. The subsequent “click reaction” appended the conjugated B-THP-T with a reporter probe as long as an alkyne handle was present (i.e. on compound 3). Refer to the experimental section for details. (C) Detection of Cy5.5-tagged proteins following photo-affinity labelling. Proteins were separated by SDS-PAGE and conjugated Cy5.5 was detected at 700 nm. Lanes 1–3 correspond to usage of compounds 1–3 respectively. Several proteins in lane 3 were conjugated with Cy5.5 via labelling with bi-functional compound 3. […]

T. brucei PF = assay: Toxicity (EC50, cell viability) in procyclic form T. brucei; format: cell-based; conditions: Trypanosoma brucei, live cells, 72 h incubation, footnote a
Description: as §1
The potency of lead B-THP-T, compound 1, was determined against oxidative phosphorylation in dose-response assays in digitonin-permeabilised PF T. brucei.
Supplementary file pntd.0005886.s001.tiff: S1 Fig Dose-response of B-THP-T compounds in PF T. brucei. EC50 values were determined for compounds 1–3 in PF T. brucei. […]

Vero = assay: Toxicity (EC50) in Vero cells; format: cell-based; conditions: Chlorocebus sabaeus, footnote b, read-out: EC50 values Mammal Vero
Description: Fig 1 Labelling and detection of B-THP-T target(s). (A) Structures of chamuvarinin and simplified analogues thereof as probes used in this study and their respective toxicity in selected cell lines. Bi-functional compound 3 contains a diazirine (blue) to cross-link the compound to its target and an alkyne handle (red) to which an azide-containing reporter probe can be added. Mono-functional compound 2 contains the diazirine to cross-link to its target but lacks the alkyne handle and cannot be appended with an azide reporter probe. Lead B-THP-T, compound 1, lacks both diazirine and alkyne. The additional functional groups on compounds 2 and 3 are minor alterations, which have little effect on inhibitor potency. (B) Overview of the in vivo pulse-chase photo-affinity labelling procedure. B-THP-T were incubated with live PF T. brucei cells and trafficked to their targets. Following UV-irradiation, only compounds containing a diazirine (i.e. compounds 2 and 3) could cross-link with target proteins. The subsequent “click reaction” appended the conjugated B-THP-T with a reporter probe as long as an alkyne handle was present (i.e. on compound 3). Refer to the experimental section for details. (C) Detection of Cy5.5-tagged proteins following photo-affinity labelling. Proteins were separated by SDS-PAGE and conjugated Cy5.5 was detected at 700 nm. […]

[1] = tested on: mitochondrial membrane potential (Δψm) in live PF T. brucei; assay: MitoTracker monitoring of mitochondrial membrane potential; format: cell-based, Trypanosoma brucei; conditions: 2 h; for Elevation of mitochondrial membrane potential (Δψm): compounds at 40 μM, MitoTracker Red/Green ratio relative to uninhibited control; for Effect on mitochondrial membrane potential (Δψm): AA and OA 2 μM, DNP 1 mM
Description: To determine which mitochondrial complex of oxidative phosphorylation was targeted by B-THP-T compounds, their effects on the mitochondrial membrane potential (Δψm) were monitored in live PF T. brucei (Fig 6A). MitoTracker Red CMXRos, like tetramethylrhodamine and safranine, accumulates in active mitochondria and the degree of accumulation is dependent on the Δψm, however, accumulation of MitoTracker Green FM is independent of the Δψm and the ratio of red/green uptake can therefore be used to determine the Δψm normalised to the number and size of mitochondria present. […] Similarly, compounds 1 and 3 elevated the mitochondrial membrane potential (by 2-3-fold), confirming that they, like OA, reduce oxidative phosphorylation by the inhibition of the FoF1-ATP synthase.
Fig 6 Effects of compounds on mitochondrial membrane potential. PF T. brucei were incubated with inhibitors and MitoTracker Red CMXRos, which is an indicator of the mitochondrial membrane potential (Δψm). (A) MitoTracker-loaded cells were imaged to qualitatively detect differences in the Δψm. […] (B) Fluorescence of MitoTracker-loaded cells were quantified using a microplate reader and normalised to MitoTracker green fluorescence.
2 x 10^6 PF T. brucei cells were incubated in 1 mL GF-SDM-79 growth media supplemented with/without inhibitors for 2 h. B-THP-Ts were used at 40 μM, AA and OA at 2 μM, DNP at 1 mM and SHAM at 100 μM. MitoTracker Red CMXRos and MitoTracker Green FM were added to 100 nM and 1 μM respectively and incubated for a further 10 min. Cells were washed in growth medium and the MitoTracker reagents chased into the mitochondrion for 10 min in fresh growth medium supplemented with inhibitors. Cells were washed again in growth medium to remove unincorporated MitoTracker reagents, pelleted, suspended in 100 μL 4% PFA in PBS, and fixed at RT in the dark for 10 min. Fixed cells were pelleted and suspended in 100 μl PBS. Cells were transferred to poly-lysine-coated slides and mounted with DAPI-containing SlowFade mounting medium (Invitrogen). Fluorescence images were collected with a DeltaVision microscope (as detailed above) to show MitoTracker localisation and comparative intensity.
1 mL of cells at 1 x 10^7 cells/mL were labelled as above. However, instead of fixing cells they were resuspended in 200 μL growth medium and transferred to 96-well plates. Fluorescences were recorded (excitation at 540/35 nm, emission at 590/10 nm for MitoTracker Red CMXRos, and excitation at 485/20 nm, emission at 528/20 nm for MitoTracker Green FM) using a BioTek FLX800 spectrofluorimeter and Gen5 Reader Control 2.0 software, in much the same way as others have recorded previously. Background fluorescence values were subtracted from each and MitoTracker Red fluorescences normalised against their MitoTracker Green FM counterparts. Membrane potentials were then calculated relative to the uninhibited controls.

SMILES: C#CCNC(=O)CCC[C@H]1CC2(C[C@@H](Cn3cc([C@@H]4CCC[C@H](CCCCOCc5ccccc5)O4)nn3)O1)N=N2 [Compound 3]
- EC50 (T. brucei BSF; Trypanosoma brucei, bloodstream form, footnote b): 13 ± 1 µM
- EC50 (T. brucei PF): 16.1 ± 0.6 µM
- EC50 (Vero): 21.3 ± 2 µM
- Elevation of mitochondrial membrane potential (Δψm) [1]: 2-3 fold

SMILES: O=C(O)CC(=O)O [malonate]
- Effect on mitochondrial membrane potential (Δψm) [1]: decrease the Δψm

SMILES: CCCCCC[C@H]1C(=O)O[C@H](C)[C@H](NC(=O)c2cccc(NC=O)c2O)C(=O)O[C@@H](C)[C@@H]1OC(=O)CC(C)C [antimycin A]
- Effect on mitochondrial membrane potential (Δψm) [1]: decrease the Δψm

SMILES: CCCCCC[C@H]1CCC[C@@H](Cn2cc([C@@H]3CCC[C@H](CCCCO)O3)nn2)O1 [Compound 1]
- Selectivity towards T. brucei over mammalian HeLa cells (T. brucei BSF; from EC50 values of Fig 1): only modest selectivity
- EC50 (T. brucei PF): 8.4 µM
- Elevation of mitochondrial membrane potential (Δψm) [1]: 2-3 fold
